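Tested at 5 concentrations; 48 h exposure; 96-well plates; endpoints linearly interpolated, else capped at highest concentration. At the TGI there is no net growth.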
Experiments:
Experiment in all cases: NCI anticancer screen, dose series, 48 h
M14 melanoma = system: M14 melanoma
SF-539 CNS = system: SF-539 CNS
SR leukemia = system: SR leukemia
ACHN renal = system: ACHN renal
NCI/ADR-RES ovarian = system: NCI/ADR-RES ovarian
SK-MEL-28 melanoma = system: SK-MEL-28 melanoma
IGROV1 ovarian = system: IGROV1 ovarian
HL-60(TB) leukemia = system: HL-60(TB) leukemia
MOLT-4 leukemia = system: MOLT-4 leukemia
PC-3 prostate = system: PC-3 prostate
BT-549 breast = system: BT-549 breast
HCC-2998 colon = system: HCC-2998 colon
HOP-92 NSCLC = system: HOP-92 NSCLC
MDA-MB-435 = system: MDA-MB-435
CAKI-1 renal = system: CAKI-1 renal
K-562 leukemia = system: K-562 leukemia
SF-268 CNS = system: SF-268 CNS
SK-MEL-2 melanoma = system: SK-MEL-2 melanoma
MDA-N = system: MDA-N

Row | Structure (SMILES) | TGI (M14 melanoma) [µM] | TGI (SF-539 CNS) [µM] | TGI (SR leukemia) [µM] | TGI (ACHN renal) [µM] | TGI (NCI/ADR-RES ovarian) [µM] | TGI (SK-MEL-28 melanoma) [µM] | TGI (IGROV1 ovarian) [µM] | TGI (HL-60(TB) leukemia) [µM] | TGI (MOLT-4 leukemia) [µM] | TGI (PC-3 prostate) [µM] | TGI (BT-549 breast) [µM] | TGI (HCC-2998 colon) [µM] | TGI (HOP-92 NSCLC) [µM] | TGI (MDA-MB-435) [µM] | TGI (CAKI-1 renal) [µM] | TGI (K-562 leukemia) [µM] | TGI (SF-268 CNS) [µM] | TGI (SK-MEL-2 melanoma) [µM] | TGI (MDA-N) [µM]
1 | Cc1ccc(NC(Nc2ccc(C)cc2C)=C(C(Cl)=C(Cl)Cl)[N+](=O)[O-])c(C)c1 | 21.3 | 43 | 11.3 | 28.5 | > 100 | 35.2 | 29.2 | 22 | 31.2 | 25 | 38.8 | 32.4 | 31.7 | 17.2 | 37.4 | 24.6 | 33.2 | – | –
2 | N#CC(C(=O)c1cccnc1Cl)c1nc2cc(C(F)(F)F)ccc2s1 (configuration not stated) | > 100 | > 100 | – | > 100 | > 100 | > 100 | > 100 | – | > 100 | – | > 100 | – | 54.4 | > 100 | > 100 | > 100 | > 100 | – | –
3 | COc1ccccc1NC(=S)NN=C(C)c1cccc(C(C)=NNC(=S)Nc2ccccc2OC)n1 | 25.8 | 62.4 | 17.2 | 64.3 | 34.7 | > 100 | > 100 | 99.5 | 74.5 | > 100 | – | > 100 | 97.7 | > 100 | > 100 | > 100 | > 100 | > 100 | > 100
4 | CN(C)CCCN1C(=S)N(CCCN(C)C)c2c3ccccc3nc3c([N+](=O)[O-])ccc1c23 | 26.8 | 23 | – | 16.1 | 27.9 | 29.9 | 16.9 | – | > 100 | > 42.4 | 36.4 | 14.5 | 19.5 | 23.7 | 19.7 | > 37.6 | 32.5 | 34.8 | 21.4
5 | COC(=O)C1CCC(=O)N1CN(C(C)=O)c1ccccc1Cl (configuration not stated) | > 100 | > 100 | > 100 | > 100 | > 100 | > 100 | > 100 | – | > 100 | > 100 | – | > 100 | > 100 | > 100 | > 100 | – | > 100 | > 100 | > 100
6 | CC(Nc1ncc2c(n1)-c1ccccc1OC2)C(=O)O (configuration not stated) | > 100 | > 100 | > 100 | > 100 | > 100 | > 100 | > 100 | 26.1 | > 100 | > 100 | – | – | > 100 | > 100 | > 100 | > 100 | > 100 | > 100 | > 100
7 | COc1ccc(N=N/C(=N/NC(=O)c2ccc(C)cc2)c2ccc(N(CCC#N)CCC#N)cc2OC)cc1 | > 100 | – | > 100 | > 100 | > 100 | > 100 | > 100 | – | > 100 | > 100 | > 100 | > 100 | > 100 | > 100 | > 100 | > 100 | > 100 | > 100 | > 100
8 | CCCNC(=S)/N=C/c1c(O)cc(C)oc1=O | > 100 | > 100 | – | > 100 | > 100 | > 100 | > 100 | – | > 100 | > 100 | > 100 | > 100 | > 100 | > 100 | > 100 | – | – | > 100 | > 100
9 | CCc1n[nH]c(=O)n1/N=C/c1ccccc1O | > 100 | > 100 | > 100 | > 100 | > 100 | > 100 | > 100 | – | > 100 | > 100 | > 100 | > 100 | > 100 | > 100 | – | > 100 | > 100 | > 100 | > 100
10 | CNNC1=NS(=O)(=O)c2cc(C#N)c(Cl)cc2S1 | > 10 | > 10 | – | > 10 | > 10 | > 10 | > 10 | > 10 | > 10 | > 10 | > 10 | > 10 | – | > 10 | > 10 | > 10 | > 10 | > 10 | > 10
11 | COc1ccccc1NC(=S)N/N=C/c1c(C)n(C)n(-c2ccccc2)c1=O | > 100 | > 100 | > 100 | > 100 | 63.9 | > 100 | > 100 | > 100 | > 100 | > 100 | > 100 | > 100 | > 100 | > 100 | > 100 | > 100 | > 100 | > 100 | –
12 | Cc1ccc(S(=O)(=O)NC(=O)NCCc2cnc[nH]2)cc1 | > 100 | > 100 | > 100 | > 100 | > 100 | > 100 | > 100 | > 100 | > 100 | > 100 | – | > 100 | > 100 | > 100 | > 100 | > 100 | > 100 | > 100 | –
13 | O=c1[nH]c2ccccc2c(=O)n1/N=C/c1ccc(O)cc1 | > 100 | > 100 | > 100 | > 100 | > 100 | > 100 | > 100 | > 100 | > 100 | > 100 | > 100 | – | 90.4 | > 100 | > 100 | > 100 | > 100 | > 100 | –
14 | CCOC(=O)c1c[nH]c2c(Sc3ccccc3)nccc2c1=O | > 100 | > 100 | – | > 100 | > 100 | > 100 | > 100 | 83.2 | > 100 | > 100 | > 100 | – | > 100 | > 100 | > 100 | – | > 100 | > 100 | > 100

Source: PubChem BioAssay (NCI)
